IC50 data for 10 compounds are collected here from paper PMC10145010, “Tuning the Biological Activity of PI3Kδ Inhibitor by the Introduction of a Fluorine Atom Using the Computational Workflow” (Molecules, 2023).

The target of this experiment is T1, PI3Kδ (Homo sapiens, UniProt O00329).
T1 construct: purchased Merck Millipore
Briefly: In vitro PI3Kδ inhibition assay (ADP-Glo kinase assay). The class given is biochemical. The following applies: mean from two independent experiments, PIP2 substrate 30 μM, 25 °C, 1 h. How it is done:
All compounds were tested by a biochemical assay that measured the inhibition of phosphatidylinositol […] production by PI3K isoform. The potency of the tested compounds was assessed by determining the ability of PI3Kδ enzymes (Merck Millipore) to convert ATP to ADP during an enzymatic reaction in the presence of these compounds at decreasing doses. The experiments were carried out using the ADP-Glo kinase assay kit (Promega), according to the manufacturer’s protocol. PIP2 lipid vesicles containing phosphoserine (ThermoFisher Scientific, Waltham, MA, USA) were used as a substrate in the enzymatic reaction. The composition of the reaction mixture and reaction conditions for PI3Kδ were as follows: concentration of PI3Kδ enzyme: 10 ng; reaction temperature and time: 25 °C and 1 h; final concentration of PIP2 substrate: 30 μM; and reaction buffer: 50 mM of HEPES (pH 7.5), 50 mM NaCl, 3 mM MgCl2, and 0.025 mg/mL of BSA.
After the reaction, the ADP-Glo reagent and the kinase detection reagent were sequentially added. The reaction mixture was incubated for 40 min (25 °C, 600 rpm) after the addition of each reagent. Finally, luminescence intensity was measured and the IC50 value was calculated using GraphPad Prism 7 software (GraphPad, Boston, MA, USA). The results were presented as the mean value of IC50 obtained from at least two independent experiments.

SMILES strings stand for the structures.

T1 sequence (O00329 whole entry): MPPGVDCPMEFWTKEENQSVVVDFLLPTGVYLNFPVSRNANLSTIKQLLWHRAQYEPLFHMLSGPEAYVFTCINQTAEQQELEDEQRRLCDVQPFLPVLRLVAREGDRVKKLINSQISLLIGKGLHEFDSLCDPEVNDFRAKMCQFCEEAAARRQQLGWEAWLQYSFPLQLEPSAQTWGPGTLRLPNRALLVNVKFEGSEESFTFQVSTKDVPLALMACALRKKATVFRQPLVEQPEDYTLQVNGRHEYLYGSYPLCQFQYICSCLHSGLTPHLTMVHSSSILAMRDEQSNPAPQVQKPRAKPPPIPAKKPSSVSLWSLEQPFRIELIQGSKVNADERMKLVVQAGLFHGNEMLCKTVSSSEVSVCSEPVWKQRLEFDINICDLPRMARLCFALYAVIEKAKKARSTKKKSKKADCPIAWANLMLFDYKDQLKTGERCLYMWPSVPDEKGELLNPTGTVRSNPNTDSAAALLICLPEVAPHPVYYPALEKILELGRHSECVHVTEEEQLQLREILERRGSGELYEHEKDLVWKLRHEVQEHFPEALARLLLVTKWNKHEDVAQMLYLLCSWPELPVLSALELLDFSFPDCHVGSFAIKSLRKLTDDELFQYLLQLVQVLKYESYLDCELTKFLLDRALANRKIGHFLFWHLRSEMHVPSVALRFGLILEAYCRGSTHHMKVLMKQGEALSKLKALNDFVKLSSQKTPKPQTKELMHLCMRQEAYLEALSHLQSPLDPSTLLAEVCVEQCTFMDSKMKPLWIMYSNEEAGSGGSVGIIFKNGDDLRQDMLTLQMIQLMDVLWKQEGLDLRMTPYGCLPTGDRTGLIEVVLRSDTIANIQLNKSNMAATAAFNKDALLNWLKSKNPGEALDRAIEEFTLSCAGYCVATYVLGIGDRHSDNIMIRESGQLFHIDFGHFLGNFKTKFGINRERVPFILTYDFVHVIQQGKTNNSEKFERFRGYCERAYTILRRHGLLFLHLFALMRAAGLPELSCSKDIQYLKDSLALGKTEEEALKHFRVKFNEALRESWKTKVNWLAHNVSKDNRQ
T1 sequence (P27986 whole entry partner): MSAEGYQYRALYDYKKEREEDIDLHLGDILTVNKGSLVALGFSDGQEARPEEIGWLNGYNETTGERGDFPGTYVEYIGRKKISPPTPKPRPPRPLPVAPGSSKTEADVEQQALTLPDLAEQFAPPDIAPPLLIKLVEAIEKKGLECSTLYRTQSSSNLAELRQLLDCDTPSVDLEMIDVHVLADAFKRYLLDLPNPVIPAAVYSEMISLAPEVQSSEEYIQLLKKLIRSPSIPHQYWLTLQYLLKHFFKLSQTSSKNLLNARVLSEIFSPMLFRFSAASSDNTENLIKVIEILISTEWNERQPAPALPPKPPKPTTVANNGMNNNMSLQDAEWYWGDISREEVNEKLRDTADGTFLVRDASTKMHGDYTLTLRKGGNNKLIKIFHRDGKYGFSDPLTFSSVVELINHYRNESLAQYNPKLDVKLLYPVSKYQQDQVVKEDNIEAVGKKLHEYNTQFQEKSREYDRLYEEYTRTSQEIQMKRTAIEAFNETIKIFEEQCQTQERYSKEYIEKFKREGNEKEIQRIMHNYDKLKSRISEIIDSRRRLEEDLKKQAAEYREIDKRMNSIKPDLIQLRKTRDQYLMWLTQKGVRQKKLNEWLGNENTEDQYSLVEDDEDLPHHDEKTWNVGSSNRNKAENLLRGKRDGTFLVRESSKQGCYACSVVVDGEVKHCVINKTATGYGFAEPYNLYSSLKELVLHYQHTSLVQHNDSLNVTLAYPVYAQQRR

`O=C(c1cc2nc(-n3c(C(F)F)nc4ccccc43)cc(N3CCOCC3)n2n1)N1CCN(Cc2cccc(F)c2)CC1` [Compound 12, 2-(Difluoromethyl)-1-(2-{4-[(3-fluorophenyl)methyl]piperazine-1-carbonyl}-7-(morpholin-4-yl)pyrazolo[1,5-a]pyrimidin-5-yl)-1H-benzimidazole] came in with an IC50 of 0.092 µM.
Consider `CC(C)(C)N1CCN(Cc2nn3c(N4CCOCC4)cc(-n4c(C(F)F)nc5ccccc54)nc3c2Br)CC1` [Compound 5, 1-{3-Bromo-2-[(4-tert-butylpiperazin-1-yl)methyl]-7-(morpholin-4-yl)pyrazolo[1,5-a]pyrimidin-5-yl}-2-(difluoromethyl)-1H-benzimidazole], for which the midpoint of inhibition, the IC50, lay at 0.05 µM.
Compound `O=C(c1cc2nc(-n3c(C(F)F)nc4ccccc43)cc(N3CCOCC3)n2n1)N1CCN(Cc2ccc(F)cc2)CC1` [Compound 13, 2-(Difluoromethyl)-1-(2-{4-[(4-fluorophenyl)methyl]piperazine-1-carbonyl}-7-(morpholin-4-yl)pyrazolo[1,5-a]pyrimidin-5-yl)-1H-benzimidazole] yielded an IC50 of 0.181 µM.
Turning to `Fc1ccccc1CN1CCN(Cc2cc3nc(-n4c(C(F)F)nc5ccccc54)cc(N4CCOCC4)n3n2)CC1` [Compound 7], the IC50 is 0.64 µM.
`Fc1cccc(CN2CCN(Cc3cc4nc(-n5c(C(F)F)nc6ccccc65)cc(N5CCOCC5)n4n3)CC2)c1` [Compound 8] registered an IC50 of 0.751 µM.
As for `O=C(c1cc2nc(-n3c(C(F)F)nc4ccccc43)cc(N3CCOCC3)n2n1)N1CCN(Cc2ccccc2)CC1` [Compound 10, 1-[2-(4-Benzylpiperazine-1-carbonyl)-7-(morpholin-4-yl)pyrazolo[1,5-a]pyrimidin-5-yl]-2-(difluoromethyl)-1H-benzimidazole], the IC50 was found to be 0.275 µM.
`FC(F)c1nc2ccccc2n1-c1cc(N2CCOCC2)n2nc(CN3CCN(Cc4ccccc4)CC3)cc2n1` [Compound 6, 1-{2-[(4-Benzylpiperazin-1-yl)methyl]-7-(morpholin-4-yl)pyrazolo[1,5-a]pyrimidin-5-yl}-2-(difluoromethyl)-1H-benzimidazole] yielded an IC50 of 0.118 µM.
In the case of `Fc1ccc(CN2CCN(Cc3cc4nc(-n5c(C(F)F)nc6ccccc65)cc(N5CCOCC5)n4n3)CC2)cc1` [Compound 9], the IC50 was 0.489 µM.
Regarding `O=C(c1cc2nc(-n3c(C(F)F)nc4ccccc43)cc(N3CCOCC3)n2n1)N1CCN(Cc2ccccc2F)CC1` [Compound 11, 2-(Difluoromethyl)-1-(2-{4-[(2-fluorophenyl)methyl]piperazine-1-carbonyl}-7-(morpholin-4-yl)pyrazolo[1,5-a]pyrimidin-5-yl)-1H-benzimidazole], it took 0.212 µM to reach half-maximal inhibition (IC50). Compared with the last compound, the IC50 is about 2.3-fold lower.
In the case of `CC(C)(C)N1CCN(Cc2nn3c(N4CCOCC4)cc(-n4c(C(F)F)nc5ccccc54)nc3c2Cl)CC1` [Compound 4, 1-{2-[(4-Tert-butylpiperazin-1-yl)methyl]-3-chloro-7-(morpholin-4-yl)pyrazolo[1,5-a]pyrimidin-5-yl}-2-(difluoromethyl)-1H-benzimidazole], half-maximal inhibition (IC50) was put at 0.044 µM.
